Read-outs that look alike come from different tables or passages of the source.
Experiments:
NF-κB p65 = NF-κB p65 (Homo sapiens, UniProt Q04206); assay: ELISA NF-κB p65 inhibition assay; format: cell-based; details: for NF-κB inhibitory activity (in words): NF-κB p65 ELISA; for ELISA NF-κB IC50: NF-κB p65, nuclear extract of HeLa cells treated with compound and TNF-α
HL-60 cells [1] = assay: Cytotoxicity; details: HL-60 leukemia cells; for HL-60 ED50: 3–4 days, SRB
HT-29 cells [2] = assay: Cytotoxicity; details: HT-29 colon cancer cells; for HT-29 ED50: 3–4 days, SRB
HeLa cells [3] = assay: Cytotoxicity; details: for HeLa ED50: HeLa cervical cancer cells, 3–4 days, SRB
HT-29 cells [4] = assay: Reactive oxygen species; format: cell-based; details: for Potentiating effect on intracellular ROS levels in the presence of H2O2: H2O2 50 μM
[5] = tested on: mitochondria transmembrane potential; assay: Mitochondria transmembrane potential; format: cell-based; details: 2 h treatment, JC-1
NF-κB = NF-κB evaluation in whole cells; format: cell-based; details: HeLa cells, IL-1α stimulation; compound 8 at 5 μg/ml
NFAT-1 = NFAT-1 assay; format: cell-based; details: 30 min incubation
P-388 cell line = details: cited from earlier work
HT-29 cells [6] = tested on: HT-29 cells
HL-60 cells [7] = tested on: HL-60 cells
HeLa cells [8] = tested on: HeLa cells

NF-κB p65, sequence (Q04206 whole entry): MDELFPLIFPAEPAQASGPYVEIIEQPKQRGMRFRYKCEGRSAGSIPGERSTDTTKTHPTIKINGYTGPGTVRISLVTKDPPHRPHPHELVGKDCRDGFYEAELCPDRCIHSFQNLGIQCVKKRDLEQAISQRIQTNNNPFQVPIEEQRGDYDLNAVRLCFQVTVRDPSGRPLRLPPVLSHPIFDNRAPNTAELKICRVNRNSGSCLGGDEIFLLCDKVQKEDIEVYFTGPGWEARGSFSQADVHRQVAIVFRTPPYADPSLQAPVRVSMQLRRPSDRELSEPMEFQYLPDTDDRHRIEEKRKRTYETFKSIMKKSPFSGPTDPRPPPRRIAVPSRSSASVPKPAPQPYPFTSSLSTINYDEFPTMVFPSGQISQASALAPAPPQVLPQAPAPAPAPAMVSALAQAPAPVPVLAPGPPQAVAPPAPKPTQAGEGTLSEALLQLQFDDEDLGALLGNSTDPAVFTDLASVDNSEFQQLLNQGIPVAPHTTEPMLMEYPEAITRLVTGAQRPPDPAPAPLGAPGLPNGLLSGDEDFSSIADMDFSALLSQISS

| ELISA NF-κB IC50 (NF-κB p65) | Molecule | HL-60 ED50 (HL-60 cells [1]) | HT-29 ED50 (HT-29 cells [2]) | HeLa ED50 (HeLa cells [3]) | Cytotoxicity against HL-60 (in words) (HL-60 cells [7]) | other results |
| --- | --- | --- | --- | --- | --- | --- |
|  | COC(=O)[C@@]12OC[C@]34[C@H]([C@@H](O)[C@@H]1O)[C@@]1(C)CC(=O)C(O)=C(C)[C@@H]1C[C@H]3OC(=O)[C@H](OC(=O)/C=C(\C)C(C)C)[C@@H]24 [Compound 5, bruceantin] | 0.0082 µg/mL | 0.012 µg/mL | 0.016 µg/mL |  | IC50 (NF-κB p65): 35.7 µM; NF-κB inhibitory activity (in words) (NF-κB p65): moderate NF-κB inhibitory activity; Cytotoxicity against HL-60 (in words) (HL-60 cells [1]): highly cytotoxic; Cytotoxicity against HT-29 (in words) (HT-29 cells [2]): highly cytotoxic; Cytotoxicity against HeLa (in words) (HeLa cells [3]; HeLa cells): highly cytotoxic |
|  | Cc1c2ccncc2c(C)c2c1[nH]c1ccccc12 [Ellipticine, ellipticine, reference compound] | 1.3 µg/mL | 3.5 µg/mL | 3.6 µg/mL |  |  |
|  | COc1cc(-c2cc(=O)c3c(O)cc(O)cc3o2)ccc1O [Compound 8, chrysoeriol] | 0.6 µg/mL | >20 µg/mL | >20 µg/mL |  | Potentiating effect on intracellular ROS levels in the presence of H2O2 (HT-29 cells [4]): exerted a potentiating effect; Elevation of intracellular ROS in the absence of H2O2 (HT-29 cells [4]; compound alone): most significant elevation of intracellular ROS; Effect on mitochondrial transmembrane potential [5]: able to compromise the integrity of the mitochondrial membrane to a larger extent than the other test compounds; Inhibition of NF-κB translocation into the nucleus (NF-κB): showed inhibition of translocation of NF-κB into the nucleus; NFAT translocation from the cytoplasm to the nucleus (NFAT-1): Induced activation of NFAT was confirmed by its translocation to the nucleus; Activity using the P-388 cell line (P-388 cell line): moderately active; Cytotoxicity against HL-60 (in words) (HL-60 cells [1]): selective cytotoxicity against the HL-60 cell line |
|  | COc1ccc([C@@]23Oc4cc(OC)cc(OC)c4[C@]2(O)[C@H](O)[C@H](C(=O)N(C)C)[C@H]3c2ccccc2)cc1 [Rocaglamide, reference compound] |  |  |  |  | Inhibition of NF-κB translocation into the nucleus (NF-κB): inhibited the translocation |
| 11.5 µg/mL | COc1cc([C@H]2Oc3cc(-c4cc(=O)c5c(O)cc(O)cc5o4)ccc3O[C@@H]2CO)ccc1O [Compound 7, (−)-hydnocarpin] | 2.6 µg/mL | 9.7 µg/mL | >20 µg/mL | moderate cytotoxicity | Cytotoxicity against HT-29 (in words) (HT-29 cells [6]): moderate cytotoxicity |
| >20 µg/mL | bruceajavanone C [Compound 3] | >20 µg/mL | >20 µg/mL | >20 µg/mL |  |  |
| >20 µg/mL | bruceajavanone A 7-acetate [Compound 1] | >20 µg/mL | >20 µg/mL | >20 µg/mL |  |  |
|  | COC(=O)[C@@]12OC[C@]34[C@H]([C@@H](O)[C@@H]1O)[C@@]1(C)CC(=O)C(O)=C(C)[C@@H]1C[C@H]3OC(=O)[C@H](OC(=O)CC(C)C)[C@@H]24 [Compound 6, bruceine A] | 0.069 µg/mL | 1.6 µg/mL | 0.6 µg/mL | highly cytotoxic | IC50 (NF-κB p65): 4.21 µM; NF-κB inhibitory activity (in words) (NF-κB p65): moderate NF-κB inhibitory activity; Cytotoxicity against HT-29 (in words) (HT-29 cells [6]): highly cytotoxic; Cytotoxicity against HeLa (in words) (HeLa cells [8]): highly cytotoxic |
| 5.3 µg/mL | C/C=C(\C)C(=O)O[C@@H]1C[C@@]2(C)[C@H]([C@@H]3C[C@@H]([C@@H]4OC4(C)C)O[C@@H]3OC(C)=O)CC[C@]2(C)[C@@H]2CC=C3C(C)(C)C(=O)C[C@H](O)[C@]3(C)[C@H]21 [Compound 2, bruceajavaninone A] | >20 µg/mL | >20 µg/mL | >20 µg/mL |  |  |
| 1.0 µg/mL | C/C=C(\C)C(=O)O[C@@H]1C[C@]2(C)C(=CC[C@H]2[C@@H]2C[C@@H]([C@@H]3OC3(C)C)O[C@@H]2OC(C)=O)[C@@]2(C)[C@H]1[C@@]1(C)C=CC(=O)C(C)(C)[C@@H]1C[C@H]2OC(C)=O [Compound 4, bruceajavanone B] | 1.1 µg/mL | >20 µg/mL | >20 µg/mL | selective cytotoxicity against the HL-60 cell line | Potentiating effect on intracellular ROS levels in the presence of H2O2 (HT-29 cells [4]): exerted a potentiating effect |
